Data taken from BindingDB's records for doi:10.1002/(SICI)1098-2396(200002)35:2<79::AID-SYN1>3.0.CO;2-X (Institut De Recherches Servier, 2000).
Several values for one entry are separate records, joined by “and”; a condition that tells them apart may be missing. Identical values can stand only once.

Legend:
D(3) dopamine receptor = D(3) dopamine receptor (Homo sapiens, UniProt P35462)
[1] = molecular target: T1, 5-hydroxytryptamine receptor 1A (Homo sapiens, UniProt P08908)
T1 sequence (P08908 whole entry): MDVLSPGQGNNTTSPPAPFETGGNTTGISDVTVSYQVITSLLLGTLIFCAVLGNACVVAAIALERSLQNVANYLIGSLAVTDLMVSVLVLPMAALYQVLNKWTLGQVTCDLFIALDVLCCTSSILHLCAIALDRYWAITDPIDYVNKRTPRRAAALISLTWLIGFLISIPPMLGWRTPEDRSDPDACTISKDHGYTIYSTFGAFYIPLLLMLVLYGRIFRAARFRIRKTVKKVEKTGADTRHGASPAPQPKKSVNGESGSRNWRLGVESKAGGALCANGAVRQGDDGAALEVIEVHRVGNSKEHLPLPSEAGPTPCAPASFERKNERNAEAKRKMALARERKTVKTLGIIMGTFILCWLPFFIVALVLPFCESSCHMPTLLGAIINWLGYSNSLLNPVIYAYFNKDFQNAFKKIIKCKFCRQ

[2] = molecular target: 5-hydroxytryptamine receptor 2A (Rattus norvegicus, UniProt P14842)
[3] = molecular target: T2, 5-hydroxytryptamine receptor 1A (Rattus norvegicus, UniProt P19327)
T2 sequence (P19327 whole entry): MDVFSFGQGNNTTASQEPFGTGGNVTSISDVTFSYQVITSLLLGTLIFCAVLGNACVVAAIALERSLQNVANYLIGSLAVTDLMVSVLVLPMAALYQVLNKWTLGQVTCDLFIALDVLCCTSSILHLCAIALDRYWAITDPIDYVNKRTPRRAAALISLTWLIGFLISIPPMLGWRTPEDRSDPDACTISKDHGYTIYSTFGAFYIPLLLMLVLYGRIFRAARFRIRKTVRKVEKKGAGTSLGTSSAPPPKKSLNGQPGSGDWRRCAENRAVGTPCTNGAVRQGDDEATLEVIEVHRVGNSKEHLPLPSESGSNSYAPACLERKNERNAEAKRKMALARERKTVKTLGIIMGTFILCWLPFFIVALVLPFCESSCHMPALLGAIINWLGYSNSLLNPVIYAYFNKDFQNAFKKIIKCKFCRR

D(2) dopamine receptor = D(2) dopamine receptor (Rattus norvegicus, UniProt P61169)
[4] = molecular target: T3, Alpha-1A adrenergic receptor (Homo sapiens, UniProt P35348)
T3 sequence (P35348 whole entry): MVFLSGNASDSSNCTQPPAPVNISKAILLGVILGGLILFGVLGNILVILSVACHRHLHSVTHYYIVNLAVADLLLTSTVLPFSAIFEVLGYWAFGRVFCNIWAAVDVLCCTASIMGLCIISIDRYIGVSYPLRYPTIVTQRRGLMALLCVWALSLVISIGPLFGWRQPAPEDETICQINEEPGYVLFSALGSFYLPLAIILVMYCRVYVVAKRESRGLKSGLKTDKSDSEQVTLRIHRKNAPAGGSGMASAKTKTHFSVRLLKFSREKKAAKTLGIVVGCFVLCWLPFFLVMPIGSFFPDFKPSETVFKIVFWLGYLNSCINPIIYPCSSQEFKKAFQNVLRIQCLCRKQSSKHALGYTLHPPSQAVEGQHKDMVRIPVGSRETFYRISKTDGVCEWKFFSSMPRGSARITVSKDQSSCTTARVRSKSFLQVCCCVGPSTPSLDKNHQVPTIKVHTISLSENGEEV

[5] = molecular target: T4, Alpha-2C adrenergic receptor (Homo sapiens, UniProt P18825)
T4 sequence (P18825 whole entry): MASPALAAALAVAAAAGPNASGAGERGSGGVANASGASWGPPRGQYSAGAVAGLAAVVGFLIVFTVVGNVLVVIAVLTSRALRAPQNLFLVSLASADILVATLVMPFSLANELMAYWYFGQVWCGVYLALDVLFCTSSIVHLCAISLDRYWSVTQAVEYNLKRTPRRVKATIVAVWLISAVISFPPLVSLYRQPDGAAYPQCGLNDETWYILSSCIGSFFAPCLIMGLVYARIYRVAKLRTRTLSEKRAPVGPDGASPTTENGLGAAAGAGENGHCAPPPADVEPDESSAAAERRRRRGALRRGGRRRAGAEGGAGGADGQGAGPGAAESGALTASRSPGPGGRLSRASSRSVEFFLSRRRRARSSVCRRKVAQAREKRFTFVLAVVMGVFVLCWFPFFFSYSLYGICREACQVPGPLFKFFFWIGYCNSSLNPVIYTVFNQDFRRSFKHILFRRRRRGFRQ

[6] = molecular target: 5-hydroxytryptamine receptor 1B (Cavia porcellus, UniProt O08892)
[7] = molecular target: T5, Alpha-2A adrenergic receptor (Homo sapiens, UniProt P08913)
T5 sequence (P08913 whole entry): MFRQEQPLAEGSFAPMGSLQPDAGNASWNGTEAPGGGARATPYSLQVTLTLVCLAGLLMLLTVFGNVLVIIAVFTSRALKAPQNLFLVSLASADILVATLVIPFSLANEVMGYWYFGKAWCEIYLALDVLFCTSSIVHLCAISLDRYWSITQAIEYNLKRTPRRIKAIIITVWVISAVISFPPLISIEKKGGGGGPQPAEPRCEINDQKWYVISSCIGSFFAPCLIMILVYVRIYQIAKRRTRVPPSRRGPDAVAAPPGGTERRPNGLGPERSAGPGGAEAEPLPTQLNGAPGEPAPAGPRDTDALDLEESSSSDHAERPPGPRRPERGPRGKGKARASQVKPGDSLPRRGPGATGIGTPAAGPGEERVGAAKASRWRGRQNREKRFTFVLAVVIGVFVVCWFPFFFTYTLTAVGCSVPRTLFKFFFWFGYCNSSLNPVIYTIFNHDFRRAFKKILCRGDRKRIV

D(3) dopamine receptor, sequence (P35462 as listed by the source): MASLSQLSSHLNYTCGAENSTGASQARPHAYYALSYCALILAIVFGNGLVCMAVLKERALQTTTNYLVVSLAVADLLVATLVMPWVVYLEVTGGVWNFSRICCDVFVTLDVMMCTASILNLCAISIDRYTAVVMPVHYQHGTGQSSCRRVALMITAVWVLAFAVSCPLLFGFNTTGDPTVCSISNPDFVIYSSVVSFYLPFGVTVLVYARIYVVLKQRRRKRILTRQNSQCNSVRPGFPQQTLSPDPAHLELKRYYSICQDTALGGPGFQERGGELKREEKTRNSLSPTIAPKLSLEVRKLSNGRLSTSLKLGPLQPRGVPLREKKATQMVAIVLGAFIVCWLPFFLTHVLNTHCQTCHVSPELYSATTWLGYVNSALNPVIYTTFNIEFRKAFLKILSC
D(2) dopamine receptor, sequence (P61169 whole entry): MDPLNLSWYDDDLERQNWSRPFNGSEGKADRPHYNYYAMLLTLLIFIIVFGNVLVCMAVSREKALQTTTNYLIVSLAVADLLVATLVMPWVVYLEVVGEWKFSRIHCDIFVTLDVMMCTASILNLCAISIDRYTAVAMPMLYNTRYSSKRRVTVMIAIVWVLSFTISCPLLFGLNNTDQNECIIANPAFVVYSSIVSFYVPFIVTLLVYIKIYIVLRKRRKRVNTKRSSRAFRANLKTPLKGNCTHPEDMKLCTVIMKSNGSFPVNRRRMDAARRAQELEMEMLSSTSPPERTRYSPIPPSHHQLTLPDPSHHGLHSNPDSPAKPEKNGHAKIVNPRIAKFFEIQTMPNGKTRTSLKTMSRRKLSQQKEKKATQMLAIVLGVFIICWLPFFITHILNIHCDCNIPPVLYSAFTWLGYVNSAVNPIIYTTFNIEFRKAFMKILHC
5-hydroxytryptamine receptor 2A, sequence (P14842 whole entry): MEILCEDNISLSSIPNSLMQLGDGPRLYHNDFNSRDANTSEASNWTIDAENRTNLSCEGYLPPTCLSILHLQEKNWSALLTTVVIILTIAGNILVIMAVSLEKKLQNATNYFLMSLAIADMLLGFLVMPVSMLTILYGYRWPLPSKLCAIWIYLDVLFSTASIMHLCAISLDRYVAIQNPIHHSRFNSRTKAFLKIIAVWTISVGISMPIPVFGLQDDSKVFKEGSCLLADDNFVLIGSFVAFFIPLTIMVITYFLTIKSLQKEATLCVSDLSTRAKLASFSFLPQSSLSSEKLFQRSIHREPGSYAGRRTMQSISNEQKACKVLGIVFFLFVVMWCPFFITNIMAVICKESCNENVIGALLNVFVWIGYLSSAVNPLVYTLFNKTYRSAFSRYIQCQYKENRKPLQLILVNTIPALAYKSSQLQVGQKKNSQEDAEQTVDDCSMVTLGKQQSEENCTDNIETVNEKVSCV
5-hydroxytryptamine receptor 1B, sequence (O08892 whole entry): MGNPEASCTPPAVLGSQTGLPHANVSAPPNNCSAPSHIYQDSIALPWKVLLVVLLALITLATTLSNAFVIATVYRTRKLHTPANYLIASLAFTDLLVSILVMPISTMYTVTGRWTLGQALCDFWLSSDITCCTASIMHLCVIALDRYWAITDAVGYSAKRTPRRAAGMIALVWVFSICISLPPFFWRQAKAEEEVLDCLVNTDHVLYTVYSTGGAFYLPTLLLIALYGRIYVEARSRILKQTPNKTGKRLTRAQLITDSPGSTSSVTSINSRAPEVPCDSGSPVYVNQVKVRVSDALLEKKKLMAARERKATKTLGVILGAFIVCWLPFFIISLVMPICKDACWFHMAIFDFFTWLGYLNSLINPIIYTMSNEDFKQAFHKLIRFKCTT

Fc1cccc2c1OC1CNCC1O2 (centres undefined) [CAS_105182-45-4]
Ki (D(3) dopamine receptor): 1000 nM
Ki [1]: 158 nM
Ki [2]: 1000 nM
Ki [3]: 631 nM
Ki (D(2) dopamine receptor): 3160 nM
Ki [4]: 501 nM
Ki [5]: 1.58 nM
Ki [6]: 1000 nM
Ki [7]: 7.94 nM and 6.3 nM
